Entries after “also recorded” stand apart in the source; their conditions may differ. Where two headings read alike, the source gives them in different places.
Legend:
[1] = LogD7.4 estimation by HPLC-based method; type: physicochemical; settings: for logD7.4 (single determination): calculated from retention time with one calibration function (A–F)
Procedure: The logarithm of the capacity factors of the reference substances was then plotted against the corresponding logP values taken from the mentioned guideline to obtain a calibration function. For non‐ionizable compounds like the reference substances used for calibration, logP values can be considered equivalent to the logD 7.4 values. To obtain a reference mixture, 2 mg of the reference substances were each dissolved in 1 mL of methanol, and 50 μL aliquots of each reference solution were subsequently combined. The reference mixture was measured before and after the substances to be tested, and the mean retention time from both measurements was used to calculate the calibration function. The calibration function was then used to determine the logD 7.4 values from the corresponding retention times for each substance to be tested. The compounds of interest were injected as a solution in methanol (2 mg/mL), and the retention time was determined as the mean value from two measurements.

[2] = Cyclic voltammetry, anodic peak potential (oxidizability); type: physicochemical; settings: 0.1 M Tris‐HCl buffer pH 7.4, −0.5 to 1.0 V, sweep rate 0.1 V/s, –[b] = no oxidation observed in the specified potential range
KV7.2/3 channel [3] = molecular target: T1, KV7.2/3 channel (Homo sapiens, UniProt O43525+O43526); assay: KV7.2/3 channel opening activity, thallium-flux FLIPR Potassium Assay in HEK-293 cells overexpressing KV7.2/3; set-up: Emax: dose or concentration left out as unconfirmed; settings: for KV7.2/3 opening activity (in words) / EC50 (required concentration to reach half‐maximal KV7.2/3 channel opening activity): HEK‐293 cells overexpressing KV7.2/3; for EC50 (required concentration to reach half‐maximal KV7.2/3 channel opening activity): mean ± SD, at least three determinations; for EC50 (required concentration to reach half‐maximal KV7.2/3 channel opening activity) / Efficacy: –[e] = inactive up to a concentration of 20 μM; for Efficacy: maximal fluorescence signal relative to flupirtine (100 %), HEK‐293; for Emax: HEK293E, read-out: Efficacy
T1 sequence (O43525 whole entry): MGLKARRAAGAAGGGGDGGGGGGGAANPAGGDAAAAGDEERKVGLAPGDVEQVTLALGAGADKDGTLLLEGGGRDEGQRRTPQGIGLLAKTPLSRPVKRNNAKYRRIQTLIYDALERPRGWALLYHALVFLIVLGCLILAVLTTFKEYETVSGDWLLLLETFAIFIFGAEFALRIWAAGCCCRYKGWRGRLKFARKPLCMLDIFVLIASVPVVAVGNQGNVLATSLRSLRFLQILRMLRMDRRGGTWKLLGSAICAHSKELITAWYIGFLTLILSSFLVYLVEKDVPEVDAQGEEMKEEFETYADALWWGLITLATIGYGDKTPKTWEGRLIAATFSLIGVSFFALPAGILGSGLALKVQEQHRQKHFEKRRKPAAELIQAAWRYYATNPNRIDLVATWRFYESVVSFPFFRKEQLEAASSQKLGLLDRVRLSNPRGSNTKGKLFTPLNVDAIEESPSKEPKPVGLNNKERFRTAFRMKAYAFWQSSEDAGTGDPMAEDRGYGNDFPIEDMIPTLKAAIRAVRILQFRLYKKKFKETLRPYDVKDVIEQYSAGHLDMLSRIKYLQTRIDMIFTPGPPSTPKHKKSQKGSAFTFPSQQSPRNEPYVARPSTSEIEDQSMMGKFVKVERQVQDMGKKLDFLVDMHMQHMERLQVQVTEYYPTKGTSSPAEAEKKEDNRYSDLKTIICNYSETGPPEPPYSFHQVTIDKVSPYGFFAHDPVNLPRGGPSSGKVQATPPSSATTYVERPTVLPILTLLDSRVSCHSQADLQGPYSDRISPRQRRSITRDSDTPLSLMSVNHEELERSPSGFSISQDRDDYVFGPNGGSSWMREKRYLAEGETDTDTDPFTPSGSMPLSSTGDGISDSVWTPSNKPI
T1 sequence (O43526 whole entry): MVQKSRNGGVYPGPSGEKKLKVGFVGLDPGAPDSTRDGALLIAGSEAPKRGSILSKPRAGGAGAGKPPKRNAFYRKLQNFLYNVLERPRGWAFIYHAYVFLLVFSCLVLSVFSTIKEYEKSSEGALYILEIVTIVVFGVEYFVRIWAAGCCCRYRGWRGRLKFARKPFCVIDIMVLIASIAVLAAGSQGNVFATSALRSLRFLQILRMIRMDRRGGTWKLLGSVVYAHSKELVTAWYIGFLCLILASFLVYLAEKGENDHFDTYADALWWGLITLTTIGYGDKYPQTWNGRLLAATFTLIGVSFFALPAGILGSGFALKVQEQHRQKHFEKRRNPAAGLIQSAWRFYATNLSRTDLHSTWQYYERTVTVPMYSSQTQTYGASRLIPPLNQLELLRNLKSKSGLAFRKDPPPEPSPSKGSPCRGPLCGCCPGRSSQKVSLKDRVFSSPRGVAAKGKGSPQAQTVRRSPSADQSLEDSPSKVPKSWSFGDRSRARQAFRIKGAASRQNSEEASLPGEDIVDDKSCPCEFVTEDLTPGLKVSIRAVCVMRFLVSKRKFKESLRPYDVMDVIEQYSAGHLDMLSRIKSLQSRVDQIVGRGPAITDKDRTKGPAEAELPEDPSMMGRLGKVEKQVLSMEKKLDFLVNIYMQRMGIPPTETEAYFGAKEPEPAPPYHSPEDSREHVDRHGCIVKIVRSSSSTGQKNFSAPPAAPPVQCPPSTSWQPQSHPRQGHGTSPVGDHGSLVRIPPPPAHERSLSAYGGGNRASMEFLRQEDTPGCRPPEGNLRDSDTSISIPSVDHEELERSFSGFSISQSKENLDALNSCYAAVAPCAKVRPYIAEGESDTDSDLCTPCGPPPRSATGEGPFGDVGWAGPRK

[4] = test system: HEP‐G2 human hepatoma cell line; settings: human, 24 h
[5] = test system: TAMH mouse liver cell line; settings: mouse, 24 h
[6] = set-up: method as in guideline OPPTS 830.7570; settings: reference substances for calibration, Tables S1–S6; ref guideline OPPTS 830.7570; cited from earlier work
KV7.2/3 channel [7] = molecular target: T1, KV7.2/3 channel; set-up: method as in PMID 30990511; settings: previous work; cited from earlier work
[8] = set-up: method as in earlier work; settings: severe but sporadic hepatotoxic events; cited from earlier work
[9] = set-up: method as in PMID 25264565; settings: oral administration of 400 mg flupirtine, modified release dosage form once daily for 8 days; cited from earlier work
[10] = pH 7.4, calculated from retention time with one calibration function (A–F), Table S7, read-out: logD7.4 (single determination)
[11] = pH 7.4, estimated by HPLC-based method, pH 7.4, read-out: LogD 7.4
[12] = KV7.2/3 opening, ratio of EC50 values

Row | SMILES | logD7.4 (single determination) ([1]; Table S7) | chromatographic logD [1, 10] | chromatographic logD [1, 11] | Ep.a. (anodic peak potential) [2] | KV7.2/3 opening activity (in words) (KV7.2/3 channel [3]) | LD25 (concentration to reduce cell viability by 25 %) [4] [µM] | LD50 (concentration to reduce cell viability by 50 %) [4] [µM] | LD25 (concentration to reduce cell viability by 25 %) [5] [µM] | LD50 (concentration to reduce cell viability by 50 %) [5] [µM] | EC50 (KV7.2/3 channel [3]) [µM] | Emax (KV7.2/3 channel [3]) [%] | other results
1 | Cc1cc(CNc2ccc(F)cc2F)ccc1NC(=O)c1cccnc1 [35 e, N ‐(4‐{[(2,4‐Difluorophenyl)amino]methyl}‐2‐methylphenyl)nicotinamide] | 2.952 | 2.97 | 3 | no anodic peak potential could be determined; also recorded: –^[b] | inactive | 61 ± 7 | 107 ± 16 | 41 ± 11 | >125 | – | – | EC50 (required concentration to reach half‐maximal KV7.2/3 channel opening activity) (KV7.2/3 channel [3]): –^[e]; Efficacy (KV7.2/3 channel [3]): –^[e]
2 | CCCC(=O)Nc1ccc(CNc2ccc(F)cc2)cc1C(F)(F)F.Cl [35 d, N ‐(4‐{[(4‐Fluorophenyl)amino]methyl}‐2‐(trifluoromethyl)phenyl)butyramide hydrochloride] | 2.991 | 3 | 3 | 663 mV | – | 75 ± 17 | >125 | >125 | >125 | 0.362 ± 0.093 | 156 ± 14 | –
3 | CCCC(=O)Nc1c(C)cc(CNc2ccc(F)cc2)cc1C [35 a, N ‐(4‐{[(4‐Fluorophenyl)amino]methyl}‐2,6‐dimethylphenyl)butyramide] | 3.023 | 3.04 | 3 | 633 mV | submicromolar activity | – | >125 | – | >125 | 0.143 ± 0.02 | 143 ± 7 | fold increase in potency compared to 35 b (KV7.2/3 channel [3]; [12]): 4.7 fold
4 | O=C(Oc1ccccc1)c1ccccc1 [Phenyl benzoate] | – | – | – | – | – | – | – | – | – | – | – | logD (Lit.) [6]: 3.6
5 | CCCC(=O)Nc1ncc(CNc2ccc(F)cc2)cc1C1CC1 [43 c, N ‐(3‐Cyclopropyl‐5‐{[(4‐fluorophenyl)amino]methyl}pyridin‐2‐yl)butyramide] | 2.772 | 2.77 | 2.8 | 678 mV | – | 55 ± 17 | >125 | 76 ± 52 | >125 | 2.02 ± 1.2 | 138 ± 20 | fold increase in potency compared to 43 a (KV7.2/3 channel [3]; [12]): 2.4 fold; increase in efficiency compared to 43 a (KV7.2/3 channel [3]; difference of efficacy values): 49%
6 | Cc1cc(CNc2ccc(F)cc2)ccc1NC(=O)c1ccccc1CO [compound 48, N ‐(4‐{[(4‐Fluorophenyl)amino]methyl}‐2‐methylphenyl)‐2‐(hydroxymethyl)benzamide] | 2.899 | 2.93 | 2.9 | no anodic peak potential could be determined; also recorded: –^[b] | inactive | 80 ± 7 | 84 ± 6 | 70 ± 10 | >125 | – | – | EC50 (required concentration to reach half‐maximal KV7.2/3 channel opening activity) (KV7.2/3 channel [3]): –^[e]; Efficacy (KV7.2/3 channel [3]): –^[e]
7 | CCOC(=O)Nc1ccc(NCc2ccc(F)cc2)nc1C [compound 6] | – | – | – | – | – | – | – | – | – | – | – | KV7.2/3 opening potency (in words) (KV7.2/3 channel [7]): equipotent to flupirtine
8 | CCOC(=O)Nc1ccc(C#Cc2ccccc2)nc1N [compound 21, Ethyl [2‐amino‐6‐(phenylethynyl)pyridin‐3‐yl]carbamate] | 2.983 | 2.99 | 3 | 553 mV | – | >125 | >125 | 63 ± 12 | >125 | > 20 | – | EC50 (required concentration to reach half‐maximal KV7.2/3 channel opening activity) (KV7.2/3 channel [3]): –^[e]; Efficacy (KV7.2/3 channel [3]): –^[e]
9 | CCOC(=O)c1ccccc1 [Ethyl benzoate] | – | – | – | – | – | – | – | – | – | – | – | logD (Lit.) [6]: 2.6
10 | Cc1cc(CNc2ccc(F)cc2)ccc1NC(=O)CCn1cccn1 [compound 53, N ‐(4‐{[(4‐Fluorophenyl)amino]methyl}‐2‐methylphenyl)‐3‐(1H ‐pyrazol‐1‐yl)propanamide] | 2.924 | 2.93 | 2.9 | no anodic peak potential could be determined; also recorded: –^[b] | fair KV7.2/3 opening activity | >63 | >63 | >63 | >63 | 2.36 ± 0.543 | 144 ± 42 | fold decrease in potency compared to butanoylamino sidechain (35 a) (KV7.2/3 channel [3]; [12]): 3.5 fold
11 | CCOC(=O)Nc1ccc(NCc2ccc(F)cc2)nc1N [Flu, flupirtine] | – | – | – | 306 mV | – | 74 ± 40 | – | 103 ± 47 | – | – | 100 | reporting rate of hepatotoxic events [8]: 1.68 cases/100,000 patient‐years; peak plasma concentration [9]: 1.6 µM; LD25 values (range over both liver cell lines) ([5]; human): 74 to 103 µM
12 | CCCC(=O)Nc1ccc(CNc2ccc(F)cc2)cc1F [35 c, N ‐(2‐Fluoro‐4‐{[(4‐fluorophenyl)amino]methyl}phenyl)butyramide] | 2.980 | 2.96 | 3 | 643 mV | – | >63 | >63 | >63 | >63 | 1.51 ± 0.364 | 167 ± 16 | –
13 | Cc1cc(CNc2ccc(F)cc2)cnc1NC(=O)CC(C)(C)C [43 b, N ‐(5‐{[(4‐Fluorophenyl)amino]methyl}‐3‐methylpyridin‐2‐yl)‐3,3‐dimethylbutanamide] | 3.039 | 3.03 | 3 | 663 mV | submicromolar activity | 66 ± 27 | >125 | >125 | >125 | 0.677 ± 0.419 | 153 ± 12 | fold increase in potency compared to 43 a (KV7.2/3 channel [3]; [12]): 7.2 fold
14 | CCCC(=O)Nc1ccc(CNc2ccc(F)cc2)cn1 [compound 44, N ‐(5‐{[(4‐Fluorophenyl)amino]methyl}pyridin‐2‐yl)butyramide] | – | – | – | – | – | – | – | – | – | – | – | melting point: 92 °C

Reference: PMC9541272, “Carba Analogues of Flupirtine and Retigabine with Improved Oxidation Resistance and Reduced Risk of Quinoid Metabolite Formation” (Chemmedchem, 2022)
